# Measurements from patent publication US9585877B2, “Methods of maintaining, treating or improving cognitive function” (Forum Pharmaceuticals, Inc., priority 2012, dated 2017).
# Experiments:
# Assay type in all cases: in vivo, human
# [1] = tested on: subjects with mild-to-moderate Alzheimer's disease; experiment: Clinical study, Controlled Oral Word Association Test (COWAT); details: 2 mg dose versus Placebo
# Procedure: (§1) A double-blind study of 3 doses of the Test Composition or placebo in subjects with mild-to-moderate Alzheimer's disease, with or without receiving a concomitant AChEI for 24 weeks (168 days) after a 7 day placebo run-in period.
# (§2) Total number of subjects in the safety population was 409 subjects that were dosed once-daily with a dosing-capsule for a period of 168 days. The subjects dosed, and the particular dosing, included: 104 subjects dosed with Placebo capsule; and 305 subjects dosed with Test Compound (104 subjects with 0.3 mg capsules; 101 subjects with 1 mg capsules; and 100 subjects with 2 mg capsules).
# The population included generally healthy male or female subjects, aged 50 to ≦85 years, with mild-to-moderate Alzheimer's disease, consistent with criteria defined by a Work Group of the National Institute of Neurological and Communicative Disorders and Stroke—Alzheimer's Disease and Related Disorders Association, of mild to moderate severity, with a Mini-Mental State Examination score (MMSE) 14 and ≦24, and a Clinical Dementia Rating Scale Sum of the Boxes (CDR-SB) score of 2. […]
# The COWAT test includes (1) asking the subject to name words beginning with a specific letter (e.g., F, A, S), (2) each of 3 trials is timed for 60 seconds, and (3) the score is calculated by the number of new words beginning with the assigned letter.
# [2] = tested on: subjects with mild-to-moderate Alzheimer's disease; experiment: Responder analysis: PK/PD effects (ADAS-Cog)
# Source text: The response by plasma level of Test Compound was also investigated. A ‘responder’ definition of >3 pt ADAS-Cog effect was utilized. The plasma levels of responders and nonresponders informed a logistic regression model. […] FIG. 12 illustrates the mean plasma concentration levels (including the 95% confidence levels and the measured extremes) of Test Compound, and FIG. 13 illustrates the Exposure Response analysis, using plasma concentration levels of Test Compound and ADAS-Cog-13 changes. The relationship between dose and likelihood of clinical response, as defined by either an ADAS-Cog effect ≧3 points, or ≧2 points, is summarized in Table 19: […]
# [3] = tested on: subjects with mild-to-moderate Alzheimer's disease; experiment: Clinical study, ADCS-ADL
# Procedure: as §1, §2
# (§3) The population included generally healthy male or female subjects, aged 50 to ≦85 years, with mild-to-moderate Alzheimer's disease, consistent with criteria defined by a Work Group of the National Institute of Neurological and Communicative Disorders and Stroke—Alzheimer's Disease and Related Disorders Association, of mild to moderate severity, with a Mini-Mental State Examination score (MMSE) 14 and ≦24, and a Clinical Dementia Rating Scale Sum of the Boxes (CDR-SB) score of 2. […] Subjects were required to be either receiving a stable dose of an AChEI (donepezil or rivastigmine) for at least 3 months before screening or not presently being treated with an AChEI or mementine for at least 30 days.
# (§4) Subjects with mild to moderate Alzheimer's disease receiving stable treatment with an AChEI (donepezil or rivastigmine: ‘add-on’ subjects) or not receiving an AChEI (de novo subjects′) received 0.3, 1, or 2 mg doses of Test Composition or placebo for up to 24 weeks (168 days) of double-blind treatment, after a 7-day single-blind, placebo run-in period to assess study drug compliance. A follow-up telephone contact was conducted approximately 15 days after the last dose of study drug for questions regarding safety.
# Alzheimer's Disease Cooperative Study Group-Activities of Daily Living Scale (ADCS-ADL, or sometimes referred to as ADCS-ADL-23):
# The ADCS-ADL-23 test employed herein is based on the procedure developed by Galasko D, Bennett D, Sano M, et al., Alz Dis Assoc Disord (1997) 11(2): S33-S39.
# The ADCS-ADL test assesses the actual performance of specific actions and behaviors by a patient as observed by a caregiver/informant.
# [4] = tested on: subjects with mild-to-moderate Alzheimer's disease; experiment: Clinical study, ADAS-Cog-11
# Procedure: as §1, §2, §3, §4
# Cognitive Part of the Alzheimer's Disease Assessment Scale (ADAS-Cog-11)
# The ADAS-cog-11 test employed herein is based on the procedure developed in the adapted version of the Administration and Scoring Manual for the Alzheimer's Disease Assessment Scale, 1994 Revised Edition, Richard C. Mohs, Ph.D., © 1994 by The Mount Sinai School of Medicine, manual modified by Donald Connor, Ph.D., and Kimberly Schafer, M.S. (3/98).
# The ADAS-cog-11 test includes the following test items: (1) Word Recall, (2) Naming Objects/Fingers, (3) Commands, (4) Construction Praxis, (5) Ideational Praxis, (6) Orientation, (7) Word Recognition, (8) Remembering Test Instructions, (9) Spoken Language Ability, (10) Word Finding Difficulty, and (11) Comprehension.
# The ADAS-cog-11 total score ranges from 0 to 70 (higher scores indicate more severe impairment). A decrease from baseline indicates improvement.
# [5] = tested on: subjects with mild-to-moderate Alzheimer's disease; experiment: Clinical study, Executive Function composite score; details: for Executive function composite score Effect Size: over a 23 week period
# Procedure: as §1, §4
# These analyses were prespecified in the analytical plan (ITT population), and included the following: Cognition composite score (ADAS-cog Word Recall, Word Recognition, & Orientation, and COWAT and CFT), Memory composite score (ADAS-cog Word Recall, Word Recognition, and Orientation), and Executive Function composite score (COWAT and CFT).
# Composite Scores—Three composite scores were calculated: (1) Composite Cognition Score (ADAS-cog Word Recall, Word Recognition, and Orientation, COWAT and CFT); (2) Memory Composite Score (ADAS-cog Word Recall, Word Recognition, and Orientation); and (3) Executive Function Composite Score (COWAT and CFT).
# The composite score is only computed when all test scores are available.
smiles,measurement,setting,value
"Cl.O.O=C(N[C@H]1CN2CCC1CC2)c1cc2cccc(Cl)c2s1 [Test Compound, (R)-7-chloro-N-(quinuclidin-3-yl)benzo[b]thiophene-2-carboxamide, hydrochloride, monohydrate]",COWAT Effect Size,[1],0.35
same,"Responders, ADAS-Cog (≧2 points)",[2]; 0.3 mg,31%
same,"Responders, ADAS-Cog (≧3 points)",[2]; 0.3 mg,25%
same,"Responders, ADAS-Cog (≧2 points)",[2]; 1 mg,33%
same,"Responders, ADAS-Cog (≧3 points)",[2]; 1 mg,28%
same,"Responders, ADAS-Cog (≧2 points)",[2]; 2 mg,51%
same,"Responders, ADAS-Cog (≧3 points)",[2]; 2 mg,45%
same,Relationship of plasma level and likelihood of being a responder,"[2]; responder >3 pt ADAS-Cog effect, logistic regression model, p=0.003",significant plasma level/exposure response relationship exists
same,ADCS-ADL (Baseline was assigned the value of zero @ Week 0),"[3]; 0.3 mg daily dose, Week 4",0.07926
same,ADCS-ADL (Baseline was assigned the value of zero @ Week 0),"[3]; 0.3 mg daily dose, Week 12",−0.5757
same,ADCS-ADL (Baseline was assigned the value of zero @ Week 0),"[3]; 0.3 mg daily dose, Week 18",−0.6255
same,ADCS-ADL (Baseline was assigned the value of zero @ Week 0),"[3]; 0.3 mg daily dose, Week 23",−1.8992
same,ADCS-ADL (Baseline was assigned the value of zero @ Week 0),"[3]; 1 mg daily dose, Week 4",0.509
same,ADCS-ADL (Baseline was assigned the value of zero @ Week 0),"[3]; 1 mg daily dose, Week 12",0.9138
same,ADCS-ADL (Baseline was assigned the value of zero @ Week 0),"[3]; 1 mg daily dose, Week 18",0.8306
same,ADCS-ADL (Baseline was assigned the value of zero @ Week 0),"[3]; 1 mg daily dose, Week 23",−0.3467
same,ADCS-ADL (Baseline was assigned the value of zero @ Week 0),"[3]; 2 mg daily dose, Week 4",0.908
same,ADCS-ADL (Baseline was assigned the value of zero @ Week 0),"[3]; 2 mg daily dose, Week 12",0.8426
same,ADCS-ADL (Baseline was assigned the value of zero @ Week 0),"[3]; 2 mg daily dose, Week 18",0.8097
same,ADCS-ADL (Baseline was assigned the value of zero @ Week 0),"[3]; 2 mg daily dose, Week 23",0.3166
same,ADCS-ADL Effect Size,[3]; 2 mg dose versus Placebo,0.20
same,ADAS-Cog-11 (Baseline was assigned the value of zero @ Week 0),"[4]; 0.3 mg daily dose, Week 4",−0.3534
same,ADAS-Cog-11 (Baseline was assigned the value of zero @ Week 0),"[4]; 0.3 mg daily dose, Week 12",−0.2129
same,ADAS-Cog-11 (Baseline was assigned the value of zero @ Week 0),"[4]; 0.3 mg daily dose, Week 18",−0.067
same,ADAS-Cog-11 (Baseline was assigned the value of zero @ Week 0),"[4]; 0.3 mg daily dose, Week 23",0.2755
same,ADAS-Cog-11 (Baseline was assigned the value of zero @ Week 0),"[4]; 1 mg daily dose, Week 4",−0.3412
same,ADAS-Cog-11 (Baseline was assigned the value of zero @ Week 0),"[4]; 1 mg daily dose, Week 12",−0.8317
same,ADAS-Cog-11 (Baseline was assigned the value of zero @ Week 0),"[4]; 1 mg daily dose, Week 18",0.1063
same,ADAS-Cog-11 (Baseline was assigned the value of zero @ Week 0),"[4]; 1 mg daily dose, Week 23",0.3534
same,ADAS-Cog-11 (Baseline was assigned the value of zero @ Week 0),"[4]; 2 mg daily dose, Week 4",−0.0031
same,ADAS-Cog-11 (Baseline was assigned the value of zero @ Week 0),"[4]; 2 mg daily dose, Week 12",−0.998
same,ADAS-Cog-11 (Baseline was assigned the value of zero @ Week 0),"[4]; 2 mg daily dose, Week 18",−1.1519
same,ADAS-Cog-11 (Baseline was assigned the value of zero @ Week 0),"[4]; 2 mg daily dose, Week 23",−1.1188
same,ADAS-Cog 11 Effect Size,[4]; 2 mg dose versus Placebo,0.34
same,Executive Function Composite Score (Baseline was assigned the value of zero @ Week 0),"[5]; 0.3 mg daily dose, Week 4",0.0074
same,Executive Function Composite Score (Baseline was assigned the value of zero @ Week 0),"[5]; 0.3 mg daily dose, Week 12",0.0391
same,Executive Function Composite Score (Baseline was assigned the value of zero @ Week 0),"[5]; 0.3 mg daily dose, Week 18",−0.0224
same,Executive Function Composite Score (Baseline was assigned the value of zero @ Week 0),"[5]; 0.3 mg daily dose, Week 23",−0.0153
same,Executive Function Composite Score (Baseline was assigned the value of zero @ Week 0),"[5]; 1 mg daily dose, Week 4",0.0202
same,Executive Function Composite Score (Baseline was assigned the value of zero @ Week 0),"[5]; 1 mg daily dose, Week 12",0.0609
same,Executive Function Composite Score (Baseline was assigned the value of zero @ Week 0),"[5]; 1 mg daily dose, Week 18",0.0418
same,Executive Function Composite Score (Baseline was assigned the value of zero @ Week 0),"[5]; 1 mg daily dose, Week 23",0.0476
same,Executive function composite score Effect Size,[5]; 1 mg versus placebo,0.32
same,Executive Function Composite Score (Baseline was assigned the value of zero @ Week 0),"[5]; 2 mg daily dose, Week 4",−0.0311
same,Executive Function Composite Score (Baseline was assigned the value of zero @ Week 0),"[5]; 2 mg daily dose, Week 12",−0.0452
same,Executive Function Composite Score (Baseline was assigned the value of zero @ Week 0),"[5]; 2 mg daily dose, Week 18",0.0188
same,Executive Function Composite Score (Baseline was assigned the value of zero @ Week 0),"[5]; 2 mg daily dose, Week 23",0.0244
same,Executive function composite score Effect Size,[5]; 2 mg versus placebo,0.27
